From patent US20220088146A1, “Melanocortin Receptor-Specific Peptide Formulations and Methods for Gastrointestinal Tract-Specific Delivery” (Palatin Technologies, Inc., priority 2018, published 2022) come the findings set out here.

Each structure is given as a SMILES string. Bridge positions count the residues as written; N and C are the ends. Square brackets hold non-standard residues; d marks the D form. Peptide text beside a SMILES is read from it. dPhe(3,4-F2) = N[C@H](Cc1ccc(F)c(F)c1)C(=O)O; dPhe(4-Cl) = N[C@H](Cc1ccc(Cl)cc1)C(=O)O; dPhe(4-Me) = Cc1ccc(C[C@@H](N)C(=O)O)cc1; dPhe(2-Cl) = N[C@H](Cc1ccccc1Cl)C(=O)O; dPhe(4-F) = N[C@H](Cc1ccc(F)cc1)C(=O)O; dPhe(2-F) = N[C@H](Cc1ccccc1F)C(=O)O; Nle = CCCC[C@H](N)C(=O)O; Orn = NCCC[C@H](N)C(=O)O; Dab = NCC[C@H](N)C(=O)O; Dap = NC[C@H](N)C(=O)O

A word on the Emax: it is the size of the effect at its maximum, as opposed to the concentration needed.

In the assay the target is hMC1r (Homo sapiens, UniProt Q01726). Nature of the assay: Assay for agonist activity: cAMP accumulation in HBL melanoma cells. It is filed as cell-based. Also on record: endogenous in cells; host or cells: HBL human melanoma cells. The note with it: HBL, compared to NDP-α-MSH as 100%, read-out: MC-1 Emax (average; cAMP HBL). The protocol: 8.2 Assay for Agonist Activity.
Sequence of hMC1r (Q01726 whole entry): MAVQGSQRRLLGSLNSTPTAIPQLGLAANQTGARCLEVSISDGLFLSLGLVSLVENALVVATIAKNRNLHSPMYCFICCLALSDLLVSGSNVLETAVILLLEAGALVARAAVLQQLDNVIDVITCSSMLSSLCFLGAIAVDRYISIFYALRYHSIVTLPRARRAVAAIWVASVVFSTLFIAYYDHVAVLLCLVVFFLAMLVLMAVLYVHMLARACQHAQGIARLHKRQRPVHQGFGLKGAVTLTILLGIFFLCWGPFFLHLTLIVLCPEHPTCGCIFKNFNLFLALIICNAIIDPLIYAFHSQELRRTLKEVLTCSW
Confluent HBL cells that express hMC1r or HEK-293 cells that express recombinant hMC4r were detached from culture plates by incubation in enzyme-free cell dissociation buffer. Dispersed cells were suspended in Earle's Balanced Salt Solution containing 10 mM HEPES (pH 7.5), 1 mM MgCl2, 1 mM glutamine, 0.5% albumin and 0.3 mM 3-isobutyl-1-methyl-xanthine (IBMX), a phosphodiesterase inhibitor. The cells were plated in 96-well plates at a density of 0.4×10^5 cells per well for HBL cells and 0.5×10^5 cells per well for HEK-293 cells and pre-incubated for 10 minutes. Cells were exposed for 15 minutes at 37° C. to peptides of the present invention dissolved in DMSO (final DMSO concentration of 1%) at a concentration range of 0.05-5000 nM in a total assay volume of 200 μL. […] Data analysis was performed by nonlinear regression analysis with Graph-Pad Prism® software.
All results are expressed in nM except for Emax values, which are percentage values. Peptides with the captioned primary sequence were synthesized and purified as described in Section 7 above, with the resulting peptide having the structure depicted.
(cAMP levels reflect the balance of adenylyl cyclase and phosphodiesterase activity.)
Consider `N=C(N)NCCC[C@@H]1NC(=O)[C@@H](Cc2ccccc2)NC(=O)[C@H](Cc2c[nH]cn2)NC(=O)[C@@H](NC(=O)C2CCCCC2)CCC(=O)NCC[C@@H](C(=O)N[C@@H](Cc2c[nH]c3ccccc23)C(N)=O)NC1=O` [Example 9.20, cyclo-hexanoyl-cyclo(Glu-His-D-Phe-Arg-Dab)-Trp-NH2], for which the maximal response (Emax) came out at 79%.
Then `CCCC[C@H](NC(C)=O)C(=O)N[C@H]1CNC(=O)CCC(=O)NC[C@@H](C(=O)N[C@@H](Cc2c[nH]c3ccccc23)C(N)=O)NC(=O)[C@H](CCCNC(=N)N)NC(=O)[C@@H](Cc2ccccc2)NC(=O)[C@H](Cc2c[nH]cn2)NC1=O` [Example 9.28, Ac-Nle-cyclo(Dap-His-D-Phe-Arg-Dap)-Trp-NH2], with 70%; and `CCCC[C@H](NC(C)=O)C(=O)N[C@H]1CCC(=O)NCC[C@@H](C(=O)N[C@@H](Cc2c[nH]c3ccccc23)C(N)=O)NC(=O)[C@H](CCCNC(=N)N)NC(=O)[C@@H](Cc2ccccc2)NC(=O)[C@H](CCCCN)NC1=O` [Example 9.40, Ac-Nle-cyclo(Glu-Lys-D-Phe-Arg-Dab)-Trp-NH2], with 108%.
The value for `CCCC[C@H](NC(C)=O)C(=O)N[C@H]1CSSC[C@@H](C(=O)N[C@@H](Cc2c[nH]c3ccccc23)C(N)=O)NC(=O)[C@H](CCCNC(=N)N)NC(=O)[C@@H](Cc2ccccc2)NC(=O)[C@H](Cc2c[nH]cn2)NC1=O` [Example 9.5, Ac-Nle-cyclo(Cys-His-D-Phe-Arg-Cys)-Trp-NH2] was 87%; that for `CCCC[C@H](NC(C)=O)C(=O)N[C@H]1CCC(=O)NCCCC[C@@H](C(=O)N[C@@H](Cc2c[nH]c3ccccc23)C(N)=O)NC(=O)[C@H](CCCNC(=N)N)NC(=O)[C@@H](Cc2ccccc2)NC(=O)[C@H](Cc2c[nH]cn2)NC1=O` [Example 9.1, Ac-Nle-cyclo(Glu-His-D-Phe-Arg-Lys)-Trp-NH2] was 97%; that for `CCCC[C@H](NC(C)=O)C(=O)N[C@H]1CCC(=O)NCC[C@@H](C(=O)N[C@H](Cc2c[nH]c3ccccc23)C(N)=O)NC(=O)[C@H](CCCNC(=N)N)NC(=O)[C@@H](Cc2ccccc2)NC(=O)[C@H](Cc2c[nH]cn2)NC1=O` [Example 9.7, Ac-Nle-cyclo(Glu-His-D-Phe-Arg-Dab)-D-Trp-NH2] was 93%.
Then `N=C(N)NCCC[C@@H]1NC(=O)[C@@H](Cc2ccccc2)NC(=O)[C@H](Cc2c[nH]cn2)NC(=O)[C@@H](NC(=O)CCc2ccccc2)CCC(=O)NCC[C@@H](C(=O)N[C@@H](Cc2c[nH]c3ccccc23)C(N)=O)NC1=O` [Example 9.24, phenyl propanoyl-cyclo(Glu-His-D-Phe-Arg-Dab)-Trp-NH2], with 83%.
On to `CCCC[C@H](NC(C)=O)C(=O)N[C@H]1CCC(=O)NCCC[C@@H](C(=O)N[C@@H](Cc2c[nH]c3ccccc23)C(N)=O)NC(=O)[C@H](CCCNC(=N)N)NC(=O)[C@@H](Cc2ccccc2)NC(=O)[C@H](Cc2c[nH]cn2)NC1=O` [Example 9.6, Ac-Nle-cyclo(Glu-His-D-Phe-Arg-Orn)-Trp-NH2], for which the Emax is 91%.
The value for `CCCC[C@H](NC(C)=O)C(=O)N[C@H]1CCC(=O)NCC[C@@H](C(N)=O)NC(=O)[C@H](CCCNC(=N)N)NC(=O)[C@@H](Cc2ccccc2F)NC(=O)[C@H](CCCN)NC1=O` [Example 9.60, Ac-Nle-cyclo(Glu-Orn-D-Phe(2-F)-Arg-Dab)-NH2] (Ac-[Nle]E[Orn][dPhe(2-F)]R[Dab]-NH2; lactam 2-6) was 95%; that for `CCCC[C@H](NC(C)=O)C(=O)N[C@H]1CCC(=O)NCC[C@@H](C(=O)N[C@@H](Cc2c[nH]c3ccccc23)C(N)=O)NC(=O)[C@H](CCCNC(=N)N)NC(=O)[C@@H](Cc2ccccc2)NC(=O)[C@H]2CCCN2C1=O` [Example 9.66, Ac-Nle-cyclo(Glu-Pro-D-Phe-Arg-Dab)-Trp-NH2] was 97%.
Then `CCCC[C@H](NC(C)=O)C(=O)N[C@H]1CCC(=O)NCC[C@@H](C(N)=O)NC(=O)[C@H](CCCNC(=N)N)NC(=O)[C@@H](Cc2ccccc2Cl)NC(=O)[C@H](CCCN)NC1=O` [Example 9.57, Ac-Nle-cyclo(Glu-Orn-D-Phe(2-Cl)-Arg-Dab)-NH2] (Ac-[Nle]E[Orn][dPhe(2-Cl)]R[Dab]-NH2; lactam 2-6), with 88%; and `CCCC[C@H](NC(C)=O)C(=O)N[C@H]1CCC(=O)NCC[C@@H](C(=O)N[C@@H](Cc2cccc3ccccc23)C(N)=O)NC(=O)[C@H](CCCNC(=N)N)NC(=O)[C@@H](Cc2ccccc2)NC(=O)[C@H](Cc2c[nH]cn2)NC1=O` [Example 9.30, Ac-Nle-cyclo(Glu-His-D-Phe-Arg-Dab)-Nal 1-NH2], with 72%; and `CCCC[C@H](NC(C)=O)C(=O)N[C@H]1CCC(=O)NCC[C@@H](C(N)=O)NC(=O)[C@H](CCCNC(=N)N)NC(=O)[C@@H](Cc2ccc(F)c(F)c2)NC(=O)[C@H](CCCN)NC1=O` [Example 9.62, Ac-Nle-cyclo(Glu-Orn-D-Phe(3,4-F)-Arg-Dab)-NH2] (Ac-[Nle]E[Orn][dPhe(3,4-F2)]R[Dab]-NH2; lactam 2-6), with 97%.
The value for `CCCC[C@H](NC(C)=O)C(=O)N[C@H]1CC(=O)NC[C@@H](C(=O)N[C@@H](Cc2c[nH]c3ccccc23)C(N)=O)NC(=O)[C@H](CCCNC(=N)N)NC(=O)[C@@H](Cc2ccccc2)NC(=O)[C@H](Cc2c[nH]cn2)NC1=O` [Example 9.4, Ac-Nle-cyclo(Asp-His-D-Phe-Arg-Dap)-Trp-NH2] (Ac-[Nle]DH[dF]R[Dap]W-NH2; lactam 2-6) was 88%; that for `CCCC[C@H](NC(C)=O)C(=O)N[C@H]1CCC(=O)NCC[C@@H](C(=O)N[C@@H](Cc2ccc3ccccc3c2)C(N)=O)NC(=O)[C@H](CCCNC(=N)N)NC(=O)[C@@H](Cc2ccccc2)NC(=O)[C@H](Cc2c[nH]cn2)NC1=O` [Example 9.10, Ac-Nle-cyclo(Glu-His-D-Phe-Arg-Dab)-Nal 2-NH2] was 83%.
Regarding `CCCC[C@H](NC(C)=O)C(=O)N[C@H]1CCC(=O)NCC[C@@H](C(N)=O)NC(=O)[C@H](CCCNC(=N)N)NC(=O)[C@@H](Cc2ccc(F)cc2)NC(=O)[C@H](CCCN)NC1=O` [Example 9.61, Ac-Nle-cyclo(Glu-Orn-D-Phe(4-F)-Arg-Dab)-NH2] (Ac-[Nle]E[Orn][dPhe(4-F)]R[Dab]-NH2; lactam 2-6), the Emax turned out to be 102%.
The value for `CCCC[C@H](NC(C)=O)C(=O)N[C@H]1CCC(=O)NCC[C@@H](C(=O)N[C@@H](Cc2c[nH]c3ccccc23)C(N)=O)NC(=O)[C@H](CCCNC(=N)N)NC(=O)[C@@H](Cc2ccccc2)NC(=O)[C@H](CCCNC(=N)N)NC1=O` [Example 9.37, Ac-Nle-cyclo(Glu-Arg-D-Phe-Arg-Dab)-Trp-NH2] was 100%; that for `N=C(N)NCCC[C@@H]1NC(=O)[C@@H](Cc2ccccc2)NC(=O)[C@H](Cc2c[nH]cn2)NC(=O)[C@@H](NC(=O)CC2CCCCC2)CCC(=O)NCC[C@@H](C(=O)N[C@@H](Cc2c[nH]c3ccccc23)C(N)=O)NC1=O` [Example 9.22, cyclohexyl acetyl-cyclo(Glu-His-D-Phe-Arg-Dab)-Trp-NH2] was 85%; that for `CCCC[C@H](NC(C)=O)C(=O)N[C@H]1CCC(=O)NCC[C@@H](C(=O)N[C@@H](Cc2c[nH]c3ccccc23)C(N)=O)NC(=O)CNC(=O)[C@@H](Cc2ccccc2)NC(=O)[C@H](Cc2c[nH]cn2)NC1=O` [Example 9.34, Ac-Nle-cyclo(Glu-His-D-Phe-Gly-Dab)-Trp-NH2] (Ac-[Nle]EH[dF]G[Dab]W-NH2; lactam 2-6) was 59%.
Regarding `CCCC[C@H](NC(C)=O)C(=O)N[C@H]1CCC(=O)NCC[C@@H](C(N)=O)NC(=O)[C@H](CCCNC(=N)N)NC(=O)[C@@H](Cc2ccc(C)cc2)NC(=O)[C@H](CCCN)NC1=O` [Example 9.63, Ac-Nle-cyclo(Glu-Orn-D-Phe(4-Me)-Arg-Dab)-NH2] (Ac-[Nle]E[Orn][dPhe(4-Me)]R[Dab]-NH2; lactam 2-6), the Emax was 96%.
For the molecule `CCCC[C@H](NC(C)=O)C(=O)N[C@H]1CCC(=O)NCC[C@@H](C(N)=O)NC(=O)[C@H](CCCNC(=N)N)NC(=O)[C@@H](Cc2ccc(Cl)cc2)NC(=O)[C@H](CCCN)NC1=O` [Example 9.59, Ac-Nle-cyclo(Glu-Orn-D-Phe(4-Cl)-Arg-Dab)-NH2] (Ac-[Nle]E[Orn][dPhe(4-Cl)]R[Dab]-NH2; lactam 2-6), the maximal response (Emax) is 100%.
Then `CCCCCC(=O)N[C@H]1CCC(=O)NCC[C@@H](C(=O)N[C@@H](Cc2c[nH]c3ccccc23)C(N)=O)NC(=O)[C@H](CCCNC(=N)N)NC(=O)[C@@H](Cc2ccccc2)NC(=O)[C@H](Cc2c[nH]cn2)NC1=O` [Example 9.17, CH3—(CH2)4—C(═O)-cyclo(Glu-His-D-Phe-Arg-Dab)-Trp-NH2], with 90%.
The value for `CCCC[C@H](NC(C)=O)C(=O)N[C@H]1CCC(=O)NCC[C@@H](C(=O)N[C@@H](Cc2c[nH]c3ccccc23)C(N)=O)NC(=O)[C@H](CCCNC(=N)N)NC(=O)[C@@H](Cc2ccccc2)NC(=O)[C@H](Cc2c[nH]cn2)NC1=O` [Example 9.2, Ac-Nle-cyclo(Glu-His-D-Phe-Arg-Dab)-Trp-NH2] was 95%; that for `N=C(N)NCCC[C@@H]1NC(=O)[C@@H](Cc2ccccc2)NC(=O)[C@H](Cc2c[nH]cn2)NC(=O)[C@@H](NC(=O)Cc2ccccc2)CCC(=O)NCC[C@@H](C(=O)N[C@@H](Cc2c[nH]c3ccccc23)C(N)=O)NC1=O` [Example 9.23, phenyl acetyl-cyclo(Glu-His-D-Phe-Arg-Dab)-Trp-NH2] was 82%.
